Like-named read-outs stand apart in the source and are kept apart here. Where a SMILES comes first, the peptide text is derived from it. Bridges are numbered along the chain shown (N, C = ends). [ ]: non-standard residue; d: D form. The star is where a group is joined. X1 = CC[C@H](C)CCCCC(=O)*; Dab = NCC[C@H](N)C(=O)O
Legend:
[1] = system: XDR-GN bacterial nosocomial pneumonia; assay: Clinical efficacy (treatment success) of PMB; assay type: in vivo, human; settings: 27 enrolled patients; iv 100 mg loading, 50 mg q12h
Description: The decision to administer PMB was made by the attending physicians. Patients with conditions that could alter the PK of PMB, who had rapidly declining or fluctuating renal function (serum creatinine ± 50% since the start of therapy, who could affect the removal of drugs from the body), who were pregnant (hormone levels, increased blood volume, and other factors affecting drug processes), who had severe burns/head/spinal cord injury (high metabolic status, fluid redistribution, reduced plasma protein levels, and other factors affecting drug processes), who had cystic fibrosis (decreased distribution of PMB in lungs), or who were severely under- or overweight (±40% of ideal body weight, changes of fat volume, and body surface area affecting drug processes) were excluded. The study was approved by the Ethics Committees of Peking Union Medical College Hospital and the Declaration of Helsinki. Written informed consent was obtained from all patients or their legal representatives.
The primary PD response was evaluated by PK/PD indices. […] The secondary PD response was evaluated by clinical parameters. […] The percentage of patients who achieved the PK/PD targets or treatment success was calculated. Variables potentially related to clinical efficacy were assessed. […] The optimal cutoff point for the PK/PD indices was calculated with the Youden index.

[2] = cited from earlier work
PK/PD targets attainment = assay type: in vivo, human
Procedure: The primary PD response was evaluated by PK/PD indices. An AUCss,0–24h of 50–100 mg·hour/L or a Css,avg of 2–4 mg/L was used as the PK/PD targets for PMB. The secondary PD response was evaluated by clinical parameters. An achievement of the treatment success at the end of treatment was defined by either (1) physicians’ judgment of improvement in signs and symptoms (reasonable compromise on the basis of survival, stable, or improved haemodynamics and oxygenation index and improved chemical and physiological indices of infection) or (2) microbiological elimination. […] The percentage of patients who achieved the PK/PD targets or treatment success was calculated. Variables potentially related to clinical efficacy were assessed. Receiver operating characteristic (ROC) curves were drawn to investigate and compare different indices as predictors of clinical efficacy. The optimal cutoff point for the PK/PD indices was calculated with the Youden index.

[3] = Asian and American patients, one-compartment model, ref Manchandani et al., 2018 [47]
[4] = Asian and American patients, ref Manchandani et al., 2018 [47]
[5] = Brazilian, Australian critically ill patients, ref Sandri et al., 2013 [48]
[6] = Chinese MDR Gram-negative infected patients, ref Wang et al., 2020 [50]
[7] = Chinese critically ill patients, CRO nosocomial pneumonia, ref Tang et al., 2023 [59]
[8] = Chinese critically ill patients, CRO nosocomial pneumonia, ref Zhang et al., 2023 [60]
[9] = Chinese critically ill patients, ref Pi et al., 2023 [57]
[10] = Chinese patients with CRKP bloodstream infections, ref Yu et al., 2022 [56]
[11] = Chinese patients with various renal functions, 100–200 mg/day, ref Yu et al., 2020 [51]
[12] = ECMO, Russian critically ill patients, ref Surovoy et al., 2022 [53]
[13] = Non-ECMO, Russian critically ill patients, ref Surovoy et al., 2022 [53]
[14] = Renal insufficiency, Thai, American patients, ref Thamlikitkul et al., 2016 [52]

Q: Which “treatment success (response rate)” value [1] does the source give for `CC[C@H](C)CCCCC(=O)N[C@@H](CCN)C(=O)N[C@H](C(=O)N[C@@H](CCN)C(=O)N[C@H]1CCNC(=O)[C@H]([C@@H](C)O)NC(=O)[C@H](CCN)NC(=O)[C@H](CCN)NC(=O)[C@H](CC(C)C)NC(=O)[C@@H](Cc2ccccc2)NC(=O)[C@H](CCN)NC1=O)[C@@H](C)O` [PMB, polymyxin B] (X1-[Dab]T[Dab][Dab][Dab][dF]L[Dab][Dab]T; lactam 4-C) here?
A: 81.48%

Q: What about the V1 ([2]; American acutely ill patients, Gram-negative infection, loading 2.5 to 3 mg/kg, maintenance 2.8 mg/kg/day, one-compartment model, ref Kubin et al., 2018 [46]) of the same molecule?
A: 34.4 L

Q: What about the V2 ([2]; American acutely ill patients, Gram-negative infection, two-compartment model, ref Miglis et al., 2018 [45]) of the same molecule?
A: 78.20 L

Q: And the CL ([2]; American critically ill patients with Gram-negative infections)?
A: approximately 2.5 L/h

Q: And the V [2, 3]?
A: 34.3 L

Q: And the t1/2 [2, 3]?
A: 10.1 h

Q: And the “AUC in patients with nephrotoxicity” value [2, 4]?
A: 52300 ng·h/mL

Q: What about the “AUC in patients without nephrotoxicity” value [2, 4] of the same molecule?
A: 45100 ng·h/mL

Q: What about the “AUCss,0–24h” value ([2]; Brazilian, Australian critically ill patients, 0.45–3.38 mg/kg/day, nonlinear mixed-effects model (PMB1 and PMB2), ref Sandri et al., 2013 [48]) of the same molecule?
A: 66900 ng·h/mL

Q: And the CL [2, 5]?
A: 0.46 mL/min/kg

Q: And the “Css,avg” value [2, 5]?
A: 2790 ng/mL

Q: And the V1 [2, 5]?
A: 0.0939 L/kg

Q: What about the V2 [2, 5] of the same molecule?
A: 0.330 L/kg

Q: And the “AUCss,0–24h” value ([2]; Chinese MDR Gram-negative infected patients, all, ref Wang et al., 2021 [49])?
A: 80140 ng·h/mL

Q: And the V1 ([2]; Chinese MDR Gram-negative infected patients, 100 to 200 mg/day, one- and two-compartment models, ref Wang et al., 2020 [50])?
A: 6.218 L

Q: And the “AUCss,0–12 h” value [2, 6]?
A: 43640 ng·h/mL

Q: What about the CL [2, 6] of the same molecule?
A: 1.786 L/h

Q: What about the V2 [2, 6] of the same molecule?
A: 11.922 L

Q: What about the “Css,avg” value ([2]; Chinese MDR Gram-negative infected patients, ref Wang et al., 2021 [49]) of the same molecule?
A: 3330 ng/mL

Q: What about the “AUCss,0–24h” value [2, 7] of the same molecule?
A: 67200 ng·h/mL

Q: What about the “Cmax,ss” value [2, 7] of the same molecule?
A: 5900 ng/mL

Q: And the “Cmin,ss” value [2, 7]?
A: 1900 ng/mL

Q: What about the V1 [2, 7] of the same molecule?
A: 12.5 ± 5.67 L

Q: What about the V2 [2, 7] of the same molecule?
A: 29.9 ± 17.3 L

Q: What about the “AUCss,0–24h” value [2, 8] of the same molecule?
A: 67200 ng·h/mL

Q: And the “Cmax,ss” value [2, 8]?
A: 5900 ng/mL

Q: What about the “Cmin,ss” value [2, 8] of the same molecule?
A: 1900 ng/mL

Q: And the V1 [2, 8]?
A: 12.5 L

Q: What about the V2 [2, 8] of the same molecule?
A: 29.9 L

Q: What about the CL [2, 9] of the same molecule?
A: 1.67 L/h

Q: What about the Cmax [2, 9] of the same molecule?
A: 4590 ng/mL

Q: And the V1 [2, 9]?
A: 7.857 L

Q: What about the V2 [2, 9] of the same molecule?
A: 12.668 L

Q: What about the t1/2 [2, 9] of the same molecule?
A: 5.29 h

Q: And the “AUCss,0–24h” value [2, 10]?
A: 79600 ng·h/mL

Q: And the CL [2, 10]?
A: 1.6 L/h

Q: And the “Css,avg” value [2, 10]?
A: 3350 ng/mL

Q: And the V1 [2, 10]?
A: 38.6 L

Q: What about the V2 [2, 10] of the same molecule?
A: 7.13 L

Q: And the “AUCss,0–24h” value ([2]; Chinese patients with CRO infections, 1.5–3.0 mg/kg/day, two-compartment model, ref Yang et al., 2022 [55])?
A: 58500 ng·h/mL

Q: And the C0 h ([2]; Chinese patients with CRO infections, ref Yang et al., 2022 [55])?
A: 1240 ng/mL

Q: What about the V1 ([2]; Chinese patients with severe CRO infections, loading 1.73, maintain 2.22 mg/kg/day, two-compartment model, ref Luo et al., 2022 [54]) of the same molecule?
A: 11.7 L

Q: What about the “AUCss,0–24h” value ([2]; Chinese patients with severe pneumonia, 50 mg every 12 h (infusion for 1 h), noncompartment model, ref Chen et al., 2021 [58]) of the same molecule?
A: 72700 ng·h/mL

Q: And the t1/2 ([2]; Chinese patients with severe pneumonia, 50 mg every 12 h, ref Chen et al., 2021 [58])?
A: 8.69 h

Q: And the CL [2, 11]?
A: 1.59 L/h

Q: And the Vd [2, 11]?
A: 20.5 L

Q: What about the “AUCss,0–12 h” value ([2]; ECMO, Russian critically ill patients, COVID-19-associated pneumonia, loading 200–300 mg, 2.5–3 mg/kg/day, noncompartmental, ELISA, ref Surovoy et al., 2022 [53]) of the same molecule?
A: 43380 ng·h/mL

Q: And the “AUCss,0–24h” value [2, 12]?
A: 96800 ng·h/mL

Q: What about the “CSS,avg” value [2, 12] of the same molecule?
A: 4.03 mg/L

Q: And the Cmax [2, 12]?
A: 5960 ng/mL

Q: What about the Cmin [2, 12] of the same molecule?
A: 2400 ng/mL

Q: What about the Tmax [2, 12] of the same molecule?
A: 5 ± 24 min

Q: What about the Vd [2, 12] of the same molecule?
A: 19.73 L

Q: And the Cmin ([2]; Following the loading dose, Chinese patients with CRKP bloodstream infections, loading 2.5 mg/kg, 1.25 mg/kg every 12 h, ref Yu et al., 2022 [56])?
A: 1620 ng/mL

Q: And the Cmax ([2]; Following the loading dose, Chinese patients with CRKP bloodstream infections, ref Yu et al., 2022 [56])?
A: 5530 ng/mL

Q: What about the CL ([2]; Non-CRRT, Chinese patients with severe CRO infections, ref Luo et al., 2022 [54]) of the same molecule?
A: 1.5 L/h

Q: What about the “AUCss,0–12 h” value [2, 13] of the same molecule?
A: 34700 ng·h/mL

Q: What about the CL [2, 13] of the same molecule?
A: 1.76 L/h

Q: And the “CSS,avg” value [2, 13]?
A: 2.9 mg/L

Q: And the Cmax [2, 13]?
A: 5080 ng/mL

Q: What about the Cmin [2, 13] of the same molecule?
A: 2150 ng/mL

Q: What about the Vd [2, 13] of the same molecule?
A: 30.4 L

Q: What about the “AUCss,0–24h” value ([2]; Normal renal function, Chinese patients, ref Wang et al., 2021 [49]) of the same molecule?
A: 68630 ng·h/mL

Q: What about the AUC ([2]; Normal renal function, Thai, American patients, 1.5–2.5 mg/kg/day, ref Thamlikitkul et al., 2016 [52]) of the same molecule?
A: 63500 ng·h/mL

Q: What about the CL ([2]; Normal renal function, Thai, American patients, ref Thamlikitkul et al., 2016 [52]) of the same molecule?
A: 2.5 ± 0.4 L/h

Q: What about the “AUCss,0–24h” value ([2]; Renal insufficiency, Chinese patients, ref Wang et al., 2021 [49]) of the same molecule?
A: 93040 ng·h/mL

Q: What about the AUC [2, 14] of the same molecule?
A: 56000 ng·h/mL

Q: What about the CL [2, 14] of the same molecule?
A: 2.0 L/h

Q: What about the CL ([2]; human, in vivo) of the same molecule?
A: 1.95 L/h

Q: And the Cmax ([2]; human, in vivo)?
A: 5500 ng/mL

Q: What about the CL ([2]; in vivo, 0.4 mg/kg/day) of the same molecule?
A: 2.5 ± 1.1 L/h

Q: What about the “Css,avg” value ([2]; in vivo) of the same molecule?
A: 1480 ng/mL

Q: And the V2 ([2]; in vivo)?
A: 17.9 L

Q: What about the “treatment success among patients who reached the target Css,avg of 2–4 mg/L” value (PK/PD targets attainment; 9 patients) of the same molecule?
A: 77.78%

Q: What about the “treatment success among patients who reached the target AUCss,0–24h of 50–100” value (PK/PD targets attainment; 13 patients) of the same molecule?
A: 76.95%

Q: What about the “treatment success among patients who exceeded the target AUCss,0–24h” value (PK/PD targets attainment; in vivo) of the same molecule?
A: 92.31%
